In patent US12421225B2, “Heteroaromatic amide derivative and medicament containing the same” (KAKEN PHARMACEUTICAL CO., LTD., priority 2018, dated 2025):

These compounds were tested against human Nav1.7 (Homo sapiens (Human), UniProt Q15858) (assay: Human Nav1.7 inhibitory activity evaluation (automated patch clamp QPatch16X, HEK293A cells stably expressing human Nav1.7 and human Navβ1)). Conditions: human Nav1.7, automated patch clamp.
Assay type: cell-based
Summary of the method: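 IC50 calculated from the concentration-response of inward current evoked by the second −10 mV, 50 ms depolarisation, which follows a 15 s conditioning step at roughly 30-40% inactivation and a 100 ms −120 mV interval. Cells: HEK293A expressing human Nav1.7/Navβ1, automated patch clamp, room temperature, 0.1% DMSO final.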

Chain of human Nav1.7 (Q15858 whole entry): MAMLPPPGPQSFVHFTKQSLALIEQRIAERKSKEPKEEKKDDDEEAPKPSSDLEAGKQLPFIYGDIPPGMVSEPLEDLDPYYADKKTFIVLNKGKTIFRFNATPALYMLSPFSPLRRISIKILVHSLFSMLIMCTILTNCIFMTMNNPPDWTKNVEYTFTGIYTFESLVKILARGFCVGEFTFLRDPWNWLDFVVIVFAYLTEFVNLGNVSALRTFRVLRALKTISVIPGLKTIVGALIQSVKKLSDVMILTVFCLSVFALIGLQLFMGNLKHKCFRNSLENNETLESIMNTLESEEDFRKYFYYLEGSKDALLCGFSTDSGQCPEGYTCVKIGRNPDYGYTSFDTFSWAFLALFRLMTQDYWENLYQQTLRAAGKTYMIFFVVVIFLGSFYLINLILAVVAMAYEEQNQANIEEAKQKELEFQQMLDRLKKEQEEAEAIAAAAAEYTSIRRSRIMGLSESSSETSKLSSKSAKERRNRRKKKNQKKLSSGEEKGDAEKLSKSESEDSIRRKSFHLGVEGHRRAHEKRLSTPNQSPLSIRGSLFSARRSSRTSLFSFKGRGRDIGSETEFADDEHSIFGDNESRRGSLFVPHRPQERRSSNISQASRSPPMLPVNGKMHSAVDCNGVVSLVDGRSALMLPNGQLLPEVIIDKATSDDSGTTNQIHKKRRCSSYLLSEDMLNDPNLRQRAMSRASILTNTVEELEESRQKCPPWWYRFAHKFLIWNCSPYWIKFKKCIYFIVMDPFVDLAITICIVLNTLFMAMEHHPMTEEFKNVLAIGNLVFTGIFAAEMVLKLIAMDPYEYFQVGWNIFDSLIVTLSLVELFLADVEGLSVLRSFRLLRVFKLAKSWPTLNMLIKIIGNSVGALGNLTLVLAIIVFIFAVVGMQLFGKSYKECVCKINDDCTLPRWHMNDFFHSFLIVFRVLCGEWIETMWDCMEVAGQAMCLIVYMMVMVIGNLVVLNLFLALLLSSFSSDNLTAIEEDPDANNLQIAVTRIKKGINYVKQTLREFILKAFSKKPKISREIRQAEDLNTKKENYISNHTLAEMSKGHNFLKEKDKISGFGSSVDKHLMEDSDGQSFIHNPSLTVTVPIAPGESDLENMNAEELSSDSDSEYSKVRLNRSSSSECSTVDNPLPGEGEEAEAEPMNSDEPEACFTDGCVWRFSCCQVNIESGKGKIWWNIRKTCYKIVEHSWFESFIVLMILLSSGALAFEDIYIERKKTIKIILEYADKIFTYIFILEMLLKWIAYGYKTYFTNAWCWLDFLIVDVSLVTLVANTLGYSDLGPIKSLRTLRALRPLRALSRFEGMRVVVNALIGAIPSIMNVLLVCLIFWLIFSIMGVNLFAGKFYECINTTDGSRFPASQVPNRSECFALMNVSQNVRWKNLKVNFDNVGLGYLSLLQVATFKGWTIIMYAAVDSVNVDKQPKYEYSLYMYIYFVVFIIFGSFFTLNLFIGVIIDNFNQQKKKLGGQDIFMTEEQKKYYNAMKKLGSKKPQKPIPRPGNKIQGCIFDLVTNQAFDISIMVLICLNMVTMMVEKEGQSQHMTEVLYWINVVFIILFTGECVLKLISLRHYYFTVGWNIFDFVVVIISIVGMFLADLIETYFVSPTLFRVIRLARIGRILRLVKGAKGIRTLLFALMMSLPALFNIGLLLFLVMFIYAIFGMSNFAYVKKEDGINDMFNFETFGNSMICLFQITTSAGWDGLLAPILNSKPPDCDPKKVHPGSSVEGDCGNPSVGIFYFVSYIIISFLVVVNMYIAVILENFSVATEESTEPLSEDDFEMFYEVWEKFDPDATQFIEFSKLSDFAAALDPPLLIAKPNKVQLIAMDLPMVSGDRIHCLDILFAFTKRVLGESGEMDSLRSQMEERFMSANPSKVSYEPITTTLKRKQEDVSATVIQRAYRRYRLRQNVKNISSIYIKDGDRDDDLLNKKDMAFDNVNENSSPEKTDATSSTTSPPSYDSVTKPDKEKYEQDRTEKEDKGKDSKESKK
Chain of human Nav1.7 (Q07699 19-218 partner): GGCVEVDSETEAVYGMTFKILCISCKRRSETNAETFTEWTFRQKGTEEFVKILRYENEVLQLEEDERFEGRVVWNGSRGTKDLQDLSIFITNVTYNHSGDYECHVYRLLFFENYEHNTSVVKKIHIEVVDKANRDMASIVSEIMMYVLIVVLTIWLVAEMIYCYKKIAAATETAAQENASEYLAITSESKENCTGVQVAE

Question: `O=C(N[C@H]1COc2ccc(COCC(F)(F)F)cc2C1)c1cc2n(n1)CCC(CN1CC(F)(F)C1)O2` (stereo partly drawn) [Example 440] was tested. Which IC50 did it give?
Answer: < 10000 nM

Question: `O=C(N[C@H]1COc2ccc(CC(F)(F)F)cc2C1)c1cc2n(n1)CCC(COCC(F)(F)F)O2` (stereo partly drawn) [Example 441] was tested. Which IC50 did it give?
Answer: < 1000 nM

Question: How did the IC50 turn out when `O=C(N[C@H]1COc2ccc(Cl)cc2C1)c1cc2n(n1)CCC(COCC(F)(F)F)O2` (stereo partly drawn) [Example 442] was run?
Answer: < 1000 nM

Question: Which IC50 does the source give for `CC1CCn2nc(C(=O)N[C@H]3COc4ccc(Cl)cc4C3)c(-c3ccccc3)c2O1` (stereo partly drawn) [Example 444] here?
Answer: < 1000 nM

Question: Which IC50 does the source give for `Cc1c(C(=O)N[C@H]2COc3ccc(Cl)cc3C2)nn2c1OC(C)(C)C2` [Example 446] here?
Answer: < 10000 nM

Question: For `O=C(N[C@H]1COc2ccc(Cl)cc2C1)c1cc2n(n1)CC(C(F)(F)COCC1CC1)O2` (stereo partly drawn) [Example 449], which IC50 is on record?
Answer: < 1000 nM

Question: `CCN(CC1Cn2nc(C(=O)N[C@H]3COc4ccc(C#N)cc4C3)cc2O1)CC(F)(F)F` (stereo partly drawn) [Example 452] was tested. Which IC50 did it give?
Answer: < 10000 nM

Question: Which IC50 does the source give for `O=C(N[C@H]1COc2ccc(Cl)cc2C1)c1cc2n(n1)CC(Cn1cccn1)O2` (stereo partly drawn) [Example 453] here?
Answer: < 10000 nM

Question: For `N#Cc1ccc2c(c1)C[C@@H](NC(=O)c1cc3n(n1)CC(CCn1cc(C(F)(F)F)cn1)O3)CO2` (stereo partly drawn) [Example 455], which IC50 is on record?
Answer: < 1000 nM

Question: For `CC1(C)CN(CC2Cn3nc(C(=O)N[C@H]4COc5ccc(C(F)(F)F)cc5C4)cc3O2)CCO1` (stereo partly drawn) [Example 458], which IC50 is on record?
Answer: < 1000 nM

Question: For `O=C(N[C@H]1COc2ccc(C3CC3)cc2C1)c1cc2n(n1)CC(COCC1CC1)O2` (stereo partly drawn) [Example 463], which IC50 is on record?
Answer: < 1000 nM

Question: For `N#Cc1ccc2c(c1)C[C@@H](NC(=O)c1cc3n(n1)CC(CCOCC1(C(F)(F)F)CC1)O3)CO2` (stereo partly drawn) [Example 465], which IC50 is on record?
Answer: < 1000 nM

Question: With `O=C(N[C@H]1COc2ccc(-c3cnccn3)cc2C1)c1cc2n(n1)CC(CCOCC1(C(F)(F)F)CC1)O2` (stereo partly drawn) [Example 467] as the compound, how does the IC50 read?
Answer: < 1000 nM

Question: `O=C(N[C@H]1COc2ccc(Cl)cc2C1)c1cc2n(n1)CC(COCC1CC1)O2` (stereo partly drawn) [Example 469] was tested. Which IC50 did it give?
Answer: < 1000 nM

Question: Which IC50 does the source give for `O=C(N[C@H]1COc2ccc(CC(F)F)cc2C1)c1cc2n(n1)CC(CCOC1CCC1)O2` (stereo partly drawn) [Example 471] here?
Answer: < 1000 nM

Question: Which IC50 does the source give for `O=C(N[C@H]1COc2ccc(COCC(F)(F)F)cc2C1)c1cc2n(n1)CC(CCOC1CCC1)O2` (stereo partly drawn) [Example 472] here?
Answer: < 1000 nM

Question: For `Cn1cc(-c2ccc3c(c2)C[C@@H](NC(=O)c2cc4n(n2)CC(CCOC2CCC2)O4)CO3)cn1` (stereo partly drawn) [Example 473], which IC50 is on record?
Answer: < 1000 nM

Question: For `O=C(N[C@H]1COc2ccc(-c3cnccn3)cc2C1)c1cc2n(n1)CC(CCOC1CCC1)O2` (stereo partly drawn) [Example 474], which IC50 is on record?
Answer: < 1000 nM

Question: `Cc1cnc(-c2ccc3c(c2)C[C@@H](NC(=O)c2cc4n(n2)CC(CCOC2CCC2)O4)CO3)cn1` (stereo partly drawn) [Example 475] was tested. Which IC50 did it give?
Answer: < 1000 nM

Question: With `O=C(N[C@H]1COc2ccc(C(F)(F)F)cc2C1)c1cc2n(n1)CC(CCN1CCC(F)(F)C1)O2` (stereo partly drawn) [Example 476] as the compound, how does the IC50 read?
Answer: < 1000 nM

Question: Which IC50 does the source give for `O=C(N[C@H]1COc2ccc(CC(F)F)cc2C1)c1cc2n(n1)CC(CCOCC(F)F)O2` (stereo partly drawn) [Example 478] here?
Answer: < 1000 nM

Question: For `O=C(N[C@H]1COc2ccc(CC(F)(F)F)cc2C1)c1cc2n(n1)CC(CCOCC(F)F)O2` (stereo partly drawn) [Example 479], which IC50 is on record?
Answer: < 1000 nM

Question: With `O=C(N[C@H]1COc2ccc(Cl)cc2C1)c1cc2n(n1)CCCC(c1ccccc1)O2` (stereo partly drawn) [Example 480] as the compound, how does the IC50 read?
Answer: < 10000 nM

Question: How did the IC50 turn out when `O=C(N[C@H]1COc2ccc(COCC(F)(F)F)cc2C1)c1cc2n(n1)CCC(OCC(F)(F)F)CO2` (stereo partly drawn) [Example 482] was run?
Answer: < 1000 nM

Question: `N#Cc1ccc2c(c1)C[C@@H](NC(=O)c1cc3n(n1)CCC(C(F)(F)F)CO3)CO2` (stereo partly drawn) [Example 483] was tested. Which IC50 did it give?
Answer: < 10000 nM

Question: How did the IC50 turn out when `COc1cccc(-c2c(C(=O)N[C@H]3COc4ccc(C(F)(F)F)cc4C3)nn3c2COCC3)n1` [Example 484] was run?
Answer: < 1000 nM

Question: Which IC50 does the source give for `O=C(N[C@H]1COc2ccc(C(F)(F)F)cc2C1)c1nn2c(c1-c1cccc(Cl)n1)COCC2` [Example 485] here?
Answer: < 1000 nM

Question: Which IC50 does the source give for `O=C(N[C@H]1COc2ccc(C(F)(F)F)cc2C1)c1nn2c(c1-c1ccn[nH]1)OCCC2` [Example 486] here?
Answer: < 1000 nM

Question: `N#Cc1ccc2c(c1)C[C@@H](NC(=O)c1cc3n(n1)CCN(CC1CCC1)C3)CO2` [Example 498] was tested. Which IC50 did it give?
Answer: < 1000 nM

Question: Which IC50 does the source give for `CC(C)(c1ccccn1)N1CCn2nc(C(=O)N[C@H]3COc4ccc(C#N)cc4C3)cc2C1` [Example 501] here?
Answer: < 10000 nM
